The source of these data is patent US11254680B2, “Cyclic iminopyrimidine derivatives as kinase inhibitors” (ABM Therapeutics Corporation, priority 2017, dated 2022).

For one data set, the system named is A375 melanoma cells. Briefly: Antiproliferation assay in A375 cell line by CellTiter Glo. The class given is cell-based. The settings on record: Homo sapiens, A-375, 72 hours or 144 hours. How it is done:
In vitro anti-proliferation study of test compounds in A375 cell line by CellTiter Glo. The cells were routinely maintained as a monolayer culture in corresponding culture medium, at 37° C. with 5% CO2 in air.
Harvest the exponential growth cells by trypsin-EDTA digestion. Re-suspend the cell pellet in fresh culture medium, and adjust the concentration to needed (the cell density per well was listed in following form). The cell viability is over 98% by Trypan blue staining. Inoculate cells into 96 wells plates according to the plate map (90 μL/well). Incubate the plates at 37° C. and 5% CO2 overnight. The next day, prepare the 10×compound containing medium according to the plate map. Transfer 10 μL of 10×compound containing medium into each well of the assay plates (the final DMSO concentration is 0.5%). Gently mix the medium and incubate at 37° C. and 5% CO2 for another 72 hours or 144 hours.
Prepare the reagent according to the manufacture's instruction. Add 50 μL CellTiter-Glo Reagent in each well. Mix contents for 2 minutes on an orbital shaker to induce cell lysis. Allow the plate to incubate at room temperature for 10 minutes to stabilize luminescent signal. Transfer 100 μL of reaction contents of each well from the clear plates into white walled/white opaque 96-well plates. Record the luminescence on Envision.
Using the luminescence measurements [time zero (T0), control growth (C), and test growth in the presence of drug at the six concentration levels (Ti)], the percentage growth is calculated at each of the drug concentrations levels.
Percentage growth inhibition (GI) is calculated as: GI (%)═[(Ti-T0)/(C-T0)]×100 for concentrations for which Ti>=T0, and GI (%)═[(Ti-T0)/T0]×100 for concentrations for which Ti<T0. Data were analyzed using the XLFit (Excel) tool, fitting to a 4-parameter equation to generate concentration response curves. Concentration of compound that inhibits 50% of control cell growth (GI50) was back-interpolated when y=50% of net growth of DMSO treated control wells using nonlinear regression with the equation: f(x) 205 [fit=(A+((B−A)/(1+((C/x)^))))], where A is the minimum response (Ymin), B is the maximum response (Ymax), C is the inflection point of the curve (Re GI50) and D is the Hill coefficient. Growth inhibition of 50% (GI50) was calculated at the 50% Growth inhibition on the curve. Index values were the sum of Inhibition rate (IR) at each tested compound concentration.
(In ATP-based viability assays light output follows the ATP content of the culture.)

The next data set has as its system P-glycoprotein (MDR1). In words: MDCK-MDR1 Permeability Assay. The class given is in vitro ADME, canine. The settings on record: dog; for efflux ratio at 120 min: MDCK-MDR1, Papp(B-A)/Papp(A-B); for Papp A→B at 120 min: MDCK-MDR1, apical to basolateral; for Papp A→B at 120 min / Papp B→A at 120 min: 1-30 μM; for Papp B→A at 120 min: MDCK-MDR1, basolateral to apical. How it is done:
MDCK-MDR1 cells originate from transfection of Madin Darby canine kidney (MDCK) cells with the MDR1 gene, the gene encoding for the efflux protein, P-glycoprotein. This cell line is ideal for identifying substrates of P-gp, with or without an inhibitor. The cells are seeded on a Multiscreen™ plate to form a confluent monolayer over 4 days prior to the experiment. On day 4, the test compound (1-30 μM concentration) is added to the apical side of the membrane and the transport of the compound across the monolayer is monitored over a 120 minutes time period. To study drug efflux, it is also necessary to investigate transport of the compound from the basolateral compartment to the apical compartment and calculate an efflux ratio.
The permeability coefficient (Papp) is calculated from the following equation: Papp=[(dQ/dt)/C0×A] where dQ/dt is the rate of permeation of the drug across the cells, C0 is the donor compartment concentration at time zero and A is the area of the cell monolayer.
An efflux ratio is calculated from the mean apical to basolateral (A-B) Papp data and basolateral to apical (B-A) Papp data. Efflux Ratio=Papp(B−A)/Papp(A−B)

Data set [1] can be described thus: Caco-2 Permeability Assay. Type of data set: in vitro ADME. The note with it: human; for efflux ratio at 120 min: Caco-2; for Papp A→B at 120 min: Caco-2, apical to basolateral; for Papp A→B at 120 min / Papp B→A at 120 min: 1-30 μM; for Papp B→A at 120 min: Caco-2, basolateral to apical. As for the experimental part: Caco-2 cells are widely used as an in vitro assay to measure the permeability of a drug compound. The Caco-2 cell line is derived from a human colorectal carcinoma, and when cultured, the cells spontaneously differentiate into monolayers of polarized enterocytes. Caco-2 cells express P-glycoprotein and breast cancer resistance protein, two of the most relevant cell membrane active transporters that affect drug compound's permeability into cells and blood brain barrier.
The cells are seeded on Millipore Millicell plates and form a confluent monolayer over 20 days prior to the experiment. On day 20, the test compound (1-30 μM concentration) is added to the apical side of the membrane and the transport of the compound across the monolayer is monitored over a 120 minutes time period. To study drug efflux, it is also necessary to investigate transport of the compound from the basolateral compartment to the apical compartment.
The permeability coefficient (Papp) is calculated from the following equation: Papp=[(dQ/dt)/C0×A] where dQ/dt is the rate of permeation of the drug across the cells, C0 is the donor compartment concentration at time zero and A is the area of the cell monolayer. C0 is obtained from analysis of the dosing solution at the start experiment.
On the technique in general: Caco-2 cells form a polarised layer with tight junctions and transporters.

A further data set concerns HT-29 colon cancer cells. Briefly: Antiproliferation assay in HT-29 cells by CellTiter Glo. Type of data set: cell-based. The note with it: Homo sapiens, 72 hours or 144 hours.

One may read the GI50 as the concentration giving 50% growth inhibition. High values mean lower sensitivity of the cells, low ones greater sensitivity of the cells. In general, efflux ratio refers to the permeability from basolateral to apical divided by that in the opposite direction, in the common usage. By Papp A→B is commonly meant the apparent permeability from the apical to the basolateral side of a cell layer. Low values mean poor permeation, high ones ready permeation. As a reminder, the Papp B→A is how fast a substance crosses the layer from the basolateral side. In the data set on A375 melanoma cells, `CCCS(=O)(=O)N(C)c1cccc(Oc2ccc3c(c2)C2=NCCN2C=N3)c1C#N` [Compound 2, N-(2-Cyano-3-((2,3-dihydroimidazo[1,2-c]quinazolin-9-yl)oxy)phenyl)-N-methylpropane-1-sulfonamide] gave a GI50 of more than 1000 nM. Besides, in the data set on P-glycoprotein (MDR1), the efflux ratio at 120 min amounted to 2.63, the Papp A→B at 120 min was 19 ×10⁻⁶ cm/s and the Papp B→A at 120 min worked out at 50 ×10⁻⁶ cm/s.
As for `CCCS(=O)(=O)Nc1ccc(F)c(Oc2ccc3c(c2)C2=NCCN2C=N3)c1C#N` [Compound 3, N-(2-Cyano-3-((2,3-dihydroimidazo[1,2-c]quinazolin-9-yl)oxy)-4-fluorophenyl)propane-1-sulfonamide], the GI50 with A375 melanoma cells is less than 100 nM. Also, in the data set on P-glycoprotein (MDR1), the efflux ratio at 120 min came to 9.85, the Papp A→B at 120 min was 2.15 ×10⁻⁶ cm/s and the Papp B→A at 120 min was 21.2 ×10⁻⁶ cm/s. In data set [1], the efflux ratio at 120 min turned out to be 1.48, the Papp A→B at 120 min was found to be 9.24 ×10⁻⁶ cm/s and the Papp B→A at 120 min turned out to be 13.7 ×10⁻⁶ cm/s.
Take `CCCS(=O)(=O)Nc1c(F)ccc(Oc2ccc3c(c2)C2=NCCN2C=N3)c1C#N` [Compound 5, N-(2-Cyano-3-((2,3-dihydroimidazo[1,2-c]quinazolin-9-yl)oxy)-6-fluorophenyl)propane-1-sulfonamide]: in the data set on A375 melanoma cells, the GI50 was in the range of 100 to 1000 nM. Besides, in the data set on P-glycoprotein (MDR1), the efflux ratio at 120 min stood at 1.82, the Papp A→B at 120 min was 1.21 ×10⁻⁶ cm/s and the Papp B→A at 120 min was 2.19 ×10⁻⁶ cm/s.
For `CCCS(=O)(=O)Nc1cccc(Oc2ccc3c(c2)C2=NCCN2C=N3)c1F` [Compound 9, N-(3-((2,3-Dihydroimidazo[1,2-c]quinazolin-9-yl)oxy)-2-fluorophenyl)propane-1-sulfonamide] the same measures were 100 to 1000 nM, 2.47, 17.6 ×10⁻⁶ cm/s and 43.4 ×10⁻⁶ cm/s.
For `CCCS(=O)(=O)Nc1cccc(Oc2ccc3c(c2)C2=NCCN2C=N3)c1C(F)(F)F` [Compound 11, N-(3-((2,3-Dihydroimidazo[1,2-c]quinazolin-9-yl)oxy)-2-(trifluoromethyl)phenyl)propane-1-sulfonamide] the same measures were 100 to 1000 nM, 1.22, 34.6 ×10⁻⁶ cm/s and 42.3 ×10⁻⁶ cm/s.
Take `CCCS(=O)(=O)Nc1cccc(Oc2ccc3c(c2)C2=NCCN2C=N3)c1[N+](=O)[O-]` [Compound 12, N-(3-((2,3-Dihydroimidazo[1,2-c]quinazolin-9-yl)oxy)-2-nitrophenyl)propane-1-sulfonamide]: in the data set on A375 melanoma cells, the GI50 is less than 100 nM. Besides, in the data set on P-glycoprotein (MDR1), the efflux ratio at 120 min turned out to be 4.3, the Papp A→B at 120 min was 6.6 ×10⁻⁶ cm/s and the Papp B→A at 120 min was found to be 28.4 ×10⁻⁶ cm/s.
Turning to `N#Cc1c(NS(=O)(=O)c2ccccc2F)cccc1Oc1ccc2c(c1)C1=NCCN1C=N2` [Compound 14, N-(2-Cyano-3-((2,3-dihydroimidazo[1,2-c]quinazolin-9-yl)oxy)phenyl)-2-fluorobenzenesulfonamide], the GI50 in the data set with A375 melanoma cells is less than 100 nM. Moreover, in the data set with P-glycoprotein (MDR1), the efflux ratio at 120 min is 2.73, the Papp A→B at 120 min came out at 3.03 ×10⁻⁶ cm/s and the Papp B→A at 120 min turned out to be 8.29 ×10⁻⁶ cm/s. Besides, in data set [1], the efflux ratio at 120 min was found to be 2.77, the Papp A→B at 120 min stood at 6.37 ×10⁻⁶ cm/s and the Papp B→A at 120 min stood at 17.7 ×10⁻⁶ cm/s.
Consider `N#Cc1c(NS(=O)(=O)c2cccs2)cccc1Oc1ccc2c(c1)C1=NCCN1C=N2` [Compound 15, N-(2-Cyano-3-((2,3-dihydroimidazo[1,2-c]quinazolin-9-yl)oxy)phenyl)thiophene-2-sulfonamide], for which the GI50 with A375 melanoma cells was 100 to 1000 nM. In the data set on P-glycoprotein (MDR1), the efflux ratio at 120 min came to 1.73, the Papp A→B at 120 min was 3.1 ×10⁻⁶ cm/s and the Papp B→A at 120 min worked out at 5.36 ×10⁻⁶ cm/s. In data set [1], the efflux ratio at 120 min was 2.94, the Papp A→B at 120 min was 5.08 ×10⁻⁶ cm/s and the Papp B→A at 120 min was 14.9 ×10⁻⁶ cm/s.
Consider `CCCS(=O)(=O)Nc1cccc(Oc2ccc3c(c2)C2=NCCCN2C=N3)c1C#N` [Compound 16, N-(2-cyano-3-((3,4-dihydro-2H-pyrimido[1,2-c]quinazolin-10-yl)oxy)phenyl)propane-1-sulfonamide], for which, in the data set with A375 melanoma cells, the GI50 was less than 100 nM. The GI50 with HT-29 colon cancer cells was less than 100 nM. Moreover, in the data set with P-glycoprotein (MDR1), the efflux ratio at 120 min turned out to be 8.79, the Papp A→B at 120 min came to 1.01 ×10⁻⁶ cm/s and the Papp B→A at 120 min is 8.89 ×10⁻⁶ cm/s.
On to `CCCS(=O)(=O)Nc1ccc(F)c(Oc2ccc3c(c2)C2=NCCCN2C=N3)c1C#N` [Compound 17, N-(2-cyano-3-((3,4-dihydro-2H-pyrimido[1,2-c]quinazolin-10-yl)oxy)-4-fluorophenyl)propane-1-sulfonamide], for which the GI50 with A375 melanoma cells was less than 100 nM. In the data set on P-glycoprotein (MDR1), the efflux ratio at 120 min came to 13.2, the Papp A→B at 120 min is 0.7 ×10⁻⁶ cm/s and the Papp B→A at 120 min came to 9.28 ×10⁻⁶ cm/s.
`CCCS(=O)(=O)Nc1cccc(Oc2ccc3c(c2)C2=NCCCN2C=N3)c1F` [Compound 18, N-(3-((3,4-Dihydro-2H-pyrimido[1,2-c]quinazolin-10-yl)oxy)-2-fluorophenyl)propane-1-sulfonamide] displayed a GI50 in the data set with A375 melanoma cells of less than 100 nM. The GI50 with HT-29 colon cancer cells was in the range of 100 to 1000 nM. In data set [1], the efflux ratio at 120 min amounted to 2.2, the Papp A→B at 120 min worked out at 11.3 ×10⁻⁶ cm/s and the Papp B→A at 120 min worked out at 24.9 ×10⁻⁶ cm/s.
As to `CCCS(=O)(=O)Nc1nccc(Oc2ccc3c(c2)C2=NCCCN2C=N3)c1[N+](=O)[O-]` [Compound 23, N-(4-((3,4-Dihydro-2H-pyrimido[1,2-c]quinazolin-10-yl)oxy)-3-nitropyridin-2-yl)propane-1-sulfonamide], the GI50 in the data set with A375 melanoma cells and with HT-29 colon cancer cells was more than 1000 nM in each case.
In the data set with A375 melanoma cells, `CCCS(=O)(=O)Nc1nccc(Oc2ccc3c(c2)C2=NCCCN2C=N3)c1Cl` [Compound 26, N-(3-Chloro-4-((3,4-dihydro-2H-pyrimido[1,2-c]quinazolin-10-yl)oxy)pyridin-2-yl)propane-1-sulfonamide] showed a GI50 of less than 100 nM. In the data set with HT-29 colon cancer cells, this compound returned a GI50 of less than 100 nM. Moreover, in the data set with P-glycoprotein (MDR1), the efflux ratio at 120 min turned out to be 4.98, the Papp A→B at 120 min was 3.95 ×10⁻⁶ cm/s and the Papp B→A at 120 min amounted to 19.6 ×10⁻⁶ cm/s.
The compound `O=S(=O)(Nc1cccc(Oc2ccc3c(c2)C2=NCCN2C=N3)c1Cl)N1CC[C@@H](F)C1` [Compound 46, (R)—N-(2-Chloro-3-((2,3-dihydroimidazo[1,2-c]quinazolin-9-yl)oxy)phenyl)-3-fluoropyrrolidine-1-sulfonamide] displayed a GI50 in the data set with A375 melanoma cells of less than 100 nM. In addition, in the data set with P-glycoprotein (MDR1), the efflux ratio at 120 min came out at 2.79, the Papp A→B at 120 min stood at 20.8 ×10⁻⁶ cm/s and the Papp B→A at 120 min stood at 57.9 ×10⁻⁶ cm/s.
